We go through 24 compounds from patent US6335350B1, “Acetamide and substituted acetamide-containing thiourea inhibitors of herpes viruses” (American Home Products Corporation, priority 1998, dated 2002).

Converted amounts (≈) assume the structure as drawn.

Assay [1] has as its system VZV strain Ellen. Briefly: VZV Antiviral (ELISA) Assay. The class given is cell-based, varicella-zoster virus. To be noted: human foreskin fibroblast cells; for IC50 / inhibition at 10 µg/mL: Human alphaherpesvirus 3, Fibroblast; for IC50: read-out: IC50 Ug/ml VZV; for inhibition at 10 µg/mL: read-out: % inhibition 10 ug/ml VZV, 10 ug/ml. Put shortly:
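First, fibroblasts are infected at multiplicity below 0.1 and kept overnight. The harvested cell mixture then goes onto compound-containing wells for three days at 37° C. Finally, cells are fixed and viral gpII is measured by fluorogenic ELISA.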

Assay [2] relates to HSV-1. The assay is described as follows: HSV Antiviral (ELISA) Assay. Type of assay: cell-based, herpes simplex virus type 1. The settings on record: Vero cells, HSV-1; for IC50: Human alphaherpesvirus 1, Vero, read-out: IC50 Ug/ml HSV. The method, boiled down: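 Replication measured as glycoprotein D signal in fixed cells: anti-gD antibody plus β-galactosidase-linked secondary, fluorogenic substrate read at 365/450 nm. Vero cells (2% FBS DMEM) received compound 30 min pre-infection, HSV-1 MOI 0.006, ~24 h incubation; IC50 relative to no-compound fluorescence.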
(ELISA stands for enzyme-linked immunosorbent assay.)

The subject of assay [3] is HCMV wild-type. Briefly: HCMV yield assay. The class given is cell-based, human cytomegalovirus. The settings on record: human foreskin fibroblasts; for IC50: Human betaherpesvirus 5, Fibroblast, read-out: IC50 Ug/ml HCMV. Put shortly: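 Value is the compound amount cutting virus yield titer by 50% (IC50) or 90% (IC90). Human foreskin fibroblasts infected with wild-type HCMV (MOI typically 0.2) under varying compound; progeny harvested day 3, titered compound-free on fibroblasts, plaques scored at 2 weeks.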

Consider `CC(=O)Nc1ccc(NC(=S)Nc2ccc(N3CCN(C)CC3)c(Cl)c2)cc1` [Example 243, N-(4-{3-[3-Chloro-4-(4-methyl-piperazin-1-yl)-phenyl]-thioureido}-phenyl)-acetamide], for which the IC50 in assay [1] was over 10 µg/mL; in assay [2], over 50 µg/mL; in assay [3] it was 40 µg/mL (≈ 95.7 µM). For the same compound, the inhibition at 10 µg/mL in assay [1] worked out at 4%.

`COc1ccc(NC(=S)Nc2ccc(NC(C)=O)cc2)c(NCc2ccccc2)c1` [Example 245, N-{4-[3-(2-Benzylamino-4-methoxy-phenyl)-thioureido]-phenyl}-acetamide]: the IC50 is 3.5 µg/mL (≈ 8.32 µM) in assay [1], over 10 µg/mL in assay [2] and over 10 µg/mL in assay [3]. Moreover, the inhibition at 10 µg/mL in assay [1] was 73%.

`CC(=O)Nc1ccc(NC(=S)Nc2ccc(OCC#N)c(Cl)c2)cc1` [Example 251, N-(4-{3-[3-Chloro-4-(2-nitrilo-ethoxy)-phenyl]-thioureido}-phenyl)-acetamide]: the results for the IC50 in assay [1], in assay [2] and in assay [3] were over 10 µg/mL, over 50 µg/mL and 7 µg/mL (≈ 18.7 µM), respectively. Also, the inhibition at 10 µg/mL in assay [1] was found to be 22%.

As to `CCC(C)Oc1ccc(NC(=S)Nc2ccc(NC(C)=O)cc2)cc1Cl` (stereo not drawn) [Example 252, N-{4-[3-(4-sec-Butoxy-3-chloro-phenyl)-thioureido]-phenyl}-acetamide], the IC50 is over 10 µg/mL in assay [1], 10 µg/mL (≈ 25.5 µM) in assay [2] and 10 µg/mL (≈ 25.5 µM) in assay [3]. Moreover, in assay [1], the inhibition at 10 µg/mL turned out to be 0%.

As for `COc1cc(OC)c(NC(=S)Nc2ccc(NC(C)=O)c(C#N)c2)cc1Cl` [Example 259, N-{4-[3-(5-Chloro-2,4-dimethoxy-phenyl)-thioureido]-2-cyano-phenyl}-acetamide], the IC50 is over 10 µg/mL in assay [1], over 50 µg/mL in assay [2] and over 50 µg/mL in assay [3]. Also, in assay [1], the inhibition at 10 µg/mL amounted to 28%.

Turning to `COc1cc(OC)c(NC(=S)Nc2cc(OC)c(NC(C)=O)cc2OC)cc1Cl` [Example 261, N-{4-[3-(5-Chloro-2,4-dimethoxy-phenyl)-thioureido]-2,5-dimethoxy-phenyl}-acetamide], the IC50 in assay [1], in assay [2] and in assay [3] was over 10 µg/mL throughout. Also, the inhibition at 10 µg/mL in assay [1] worked out at 1%.

As to `CC(=O)Nc1ccc(NC(=S)Nc2ccc(Oc3ccc(Cl)cc3S(=O)(=O)O)c(Cl)c2)cc1` [Example 262, 2-{4-[3-(4-Acetylamino-phenyl)-thioureido]-2-chloro-phenoxy}-5-chloro-benzenesulfonic acid], the IC50 in assay [1] was over 10 µg/mL; in assay [2] it was over 50 µg/mL; in assay [3] it was over 50 µg/mL. Also, the inhibition at 10 µg/mL in assay [1] amounted to 15%.

For `CC(=O)Nc1ccc(NC(=S)Nc2ccc(Oc3cc(Cl)c(Cl)cc3S(=O)(=O)O)c(Cl)c2)cc1` [Example 263, 2-{4-[3-(4-Acetylamino-phenyl)-thioureido]-2-chloro-phenoxy}-4,5-dichloro-benzensulfonic acid], the IC50 was over 10 µg/mL in assay [1], over 50 µg/mL in assay [2] and over 50 µg/mL in assay [3]. In addition, in assay [1], the inhibition at 10 µg/mL came out at 20%.

As to `CC(=O)Nc1ccc(NC(=S)Nc2ccc(OCCO)c(Cl)c2)cc1` [Example 265, N-(4-{3-[3-Chloro-4-(2-hydroxy-ethoxy)-phenyl]-thioureido}-phenyl)-acetamide], the figures for the IC50 in assay [1], in assay [2] and in assay [3] were over 10 µg/mL, over 50 µg/mL and over 50 µg/mL, respectively. Further, the inhibition at 10 µg/mL in assay [1] was determined as 20%.

As to `CCCCOc1ccc(NC(=S)Nc2ccc(NC(C)=O)cc2)cc1Cl` [Example 266, N-{4-[3-(4-Butoxy-3-chloro-phenyl)-thioureido]-phenyl}-acetamide], the results for the IC50 in assay [1], in assay [2] and in assay [3] were over 10 µg/mL, 12 µg/mL (≈ 30.6 µM) and over 10 µg/mL, respectively. In assay [1], the inhibition at 10 µg/mL turned out to be 10%.

Take `CCN(c1ccc(NC(=S)Nc2ccc(NC(C)=O)cc2)cc1Cl)C1CCCCC1` [Example 267, N-(4-{3-[3-Chloro-4-(cyclohexyl-ethyl-amino)-phenyl]-thioureido}-phenyl)-acetamide]: the IC50 in assay [1], in assay [2] and in assay [3] was over 10 µg/mL throughout. Also, in assay [1], the inhibition at 10 µg/mL is 25%.

For `CCOc1ccc(NC(=S)Nc2ccc(NC(C)=O)cc2)cc1Cl` [Example 268, N-{4-[3-(3-Chloro-4-ethoxy-phenyl)-thioureido]-phenyl}-acetamide], the IC50 in assay [1] was over 10 µg/mL; in assay [2], over 10 µg/mL; in assay [3], 10 µg/mL (≈ 27.5 µM). Further, the inhibition at 10 µg/mL in assay [1] turned out to be 14%.

For `CC(=O)Nc1ccc(NC(=S)Nc2ccc(OCc3ccccc3)c(Cl)c2)cc1` [Example 269, N-{4-[3-(4-Benzyloxy-3-chloro-phenyl)-thioureido]-phenyl}-acetamide], the results for the IC50 in assay [1], in assay [2] and in assay [3] were over 10 µg/mL, over 10 µg/mL and 5 µg/mL (≈ 11.7 µM), respectively. Further, the inhibition at 10 µg/mL in assay [1] came to 38%.

As to `COc1cc(NCc2ccccc2)c(NC(=S)Nc2ccc(NC(C)=O)cc2)cc1Cl` [Example 271, N-{4-[3-(2-Benzylamino-5-chloro-4-methoxy-phenyl)-thioureido]-phenyl}-acetamide], the IC50 in assay [1] is 3.5 µg/mL (≈ 7.69 µM); in assay [2] it was 7 µg/mL (≈ 15.4 µM); in assay [3], over 10 µg/mL. For the same compound, the inhibition at 10 µg/mL in assay [1] came out at 105%.

As to `CCCN(CCC)c1ccc(NC(=S)Nc2ccc(NC(C)=O)cc2)cc1Cl` [Example 272, N-{4-[3-(3-Chloro-4-dipropylamino-phenyl)-thioureido]-phenyl}-acetamide], the IC50 in assay [1] is over 10 µg/mL; in assay [2] it was over 50 µg/mL; in assay [3] it was over 10 µg/mL. Besides, the inhibition at 10 µg/mL in assay [1] came to 50%.

For `C=CCN(c1ccc(NC(=S)Nc2ccc(NC(C)=O)cc2)cc1Cl)C1CCCCC1` [Example 273, N-(4-{3-[4-(Allyl-cyclohexyl-amino)-3-chloro-phenyl]-thioureido}-phenyl)-cetamide], in assay [1], the “% inhibition 10 ug/ml VZV” value is listed as 46% and the “IC50 Ug/ml VZV” value is reported as over 10 Ug/ml. Further, the “IC50 Ug/ml HSV” value in assay [2] is recorded as over 50 Ug/ml. In assay [3], the “IC50 Ug/ml HCMV” value is given as over 10 Ug/ml.

Take `COc1cc(OC)c(NC(=S)Nc2ccc(NC(C)=O)c(OC)c2)cc1Cl` [Example 274, N-{4-[3-(5-Chloro-2,4-dimethoxy-phenyl)-thioureido]-2-methoxy-phenyl}-acetamide]: the IC50 was over 10 µg/mL in assay [1], 5 µg/mL (≈ 12.2 µM) in assay [2] and over 50 µg/mL in assay [3]. In addition, the inhibition at 10 µg/mL in assay [1] was found to be 15%.

`COc1cc(OC)c(NC(=S)Nc2ccc(NC(C)=O)c(Cl)c2)cc1Cl` [Example 275, N-{2-Chloro-4-[3-(5-chloro-2,4-dimethoxy-phenyl)-thioureido]-phenyl}-acetamide]: the IC50 in assay [1] was over 10 µg/mL; in assay [2], 10 µg/mL (≈ 24.1 µM); in assay [3], over 10 µg/mL. For the same compound, the inhibition at 10 µg/mL in assay [1] was 32%.

On to `CC(=O)Nc1ccc(NC(=S)Nc2ccc(N3CCCC4CCCCC43)c(Cl)c2)cc1` (stereo not drawn) [Example 282, N-(4-{3-[3-Chloro-4-(octahydro-quinolin-1-yl)-phenyl]-thioureido}-phenyl)-acetamide], for which the IC50 in assay [1], in assay [2] and in assay [3] was over 10 µg/mL throughout. Moreover, the inhibition at 10 µg/mL in assay [1] is 50%.

Consider `COc1cc(OC)c(NC(=S)Nc2cc(OC)c(NC(C)=O)cc2C)cc1Cl` [Example 285, N-{4-[3-(5-Chloro-2,4-dimethoxy-phenyl)-thioureido]-2-methoxy-5-methyl-phenyl}-acetamide], for which the figures for the IC50 in assay [1], in assay [2] and in assay [3] were over 10 µg/mL, over 50 µg/mL and over 50 µg/mL, respectively. Moreover, in assay [1], the inhibition at 10 µg/mL turned out to be 18%.

With `COc1ccc(NC(=S)Nc2ccc(NC(C)=O)cc2)cc1C(F)(F)F` [Example 290, N-{4-[3-(4-Methoxy-3-trifluoromethyl-phenyl)-thioureido]-phenyl}-acetamide], the IC50 is over 10 µg/mL in assay [1], over 50 µg/mL in assay [2] and 5 µg/mL (≈ 13 µM) in assay [3]. In addition, the inhibition at 10 µg/mL in assay [1] came to 1%.

With `CC(=O)Nc1ccc(NC(=S)Nc2ccc(N(C)CCO)c(Cl)c2)cc1` [Example 291], in assay [1], the “% inhibition 10 ug/ml VZV” value is 18% and the “IC50 Ug/ml VZV” value is over 10 Ug/ml. In assay [2], the “IC50 Ug/ml HSV” value is over 50 Ug/ml. The “IC50 Ug/ml HCMV” value in assay [3] was 6 Ug/ml.

Consider `COc1cc(OC)c(NC(=S)Nc2ccc(NC(C)=O)c(C(=O)c3ccccc3)c2)cc1Cl` [Example 292, N-{2-Benzoyl-4-[3-(5-chloro-2,4-dimethoxy-phenyl)-thioureido]-phenyl}-acetamide], for which the IC50 in assay [1] was 13 µg/mL (≈ 26.9 µM); in assay [2], over 50 µg/mL; in assay [3] it was over 10 µg/mL. In assay [1], the inhibition at 10 µg/mL stood at 70%.

For `COc1cc(OC)c(NC(=S)Nc2ccc(NC(C)=O)cc2C)cc1Cl` [Example 297, N-{4-[3-(5-Chloro-2,4-dimethoxy-phenyl)-thioureido]-3-methyl-phenyl}-acetamide], the results for the IC50 in assay [1], in assay [2] and in assay [3] were over 10 µg/mL, 1 µg/mL (≈ 2.54 µM) and over 10 µg/mL, respectively. For the same compound, in assay [1], the inhibition at 10 µg/mL is 23%.
